The target in one assay is PI3Kα (Homo sapiens (Human), UniProt P42336). Nature of the assay: Inhibition of PI3Kα efficacy assay (ADP-Glo kinase assay). It is filed as biochemical. Particulars: read-out: PI3Kα inhibitory activity (IC50). A digest of the protocol: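 ADP-Glo luminescent detection of ADP from PI3Kα acting on PI substrate with ATP, 60 min at RT; compounds in 8-point five-fold serial dilution from 2 mM DMSO stock. IC50 from four-parameter variable-slope fit.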

Another assay deals with PI3Kδ (Homo sapiens (Human), UniProt O00329). Nature of the assay: Inhibition of PI3Kδ efficacy assay (ADP-Glo kinase assay). It is filed as biochemical. Particulars: read-out: PI3Kδ inhibitory activity (IC50). A digest of the protocol:
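Luminescent ADP-Glo readout of PI3Kδ: after a 60 min RT reaction with PI/ATP substrate, ATP depletion (40 min) and ADP detection (40 min) steps followed. Compounds tested as eight five-fold serial dilutions; inhibition rates fitted to log(inhibitor) vs. response, variable slope, for IC50.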

The next assay concerns the target KRAS^G12C-SOS1 (Homo sapiens (Human), UniProt P01116, G12C). As to the kind of experiment: HTRF KRAS G12C/SOS1 binding assay. The following applies: Table 5. A digest of the protocol:
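Compound was serially diluted five-fold over eight points, with a 2 mM DMSO stock. After anti-tag-Tb3+ and anti-tag-XL665 were added, plates were incubated 3 h at 4 °C and read by HTRF (ex 337 nm, em 620/665 nm ratio). IC50 values come from four-parameter variable-slope fits.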
On the technique in general: TR-FRET usually uses a lanthanide donor and a delayed reading to cut background.

Assay [1] deals with MIA PaCa-2 cells (KRAS G12C mutant). Nature of the assay: MIA PaCa-2 cell anti-proliferation (CellTiter-Glo). It counts as cell-based. Particulars: Homo sapiens, 72 h; MIA Paca-2 cells, 3 days, Table 7; read-out: MIA PaCa-2 (IC50). In outline:
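Viable-cell luminescence (CellTiter-Glo, ≥30 min at 25 °C) measured after a 3-day, 37 °C exposure to compounds at 9 points, 4-fold spaced, in DMEM containing 10% FBS plus 2.5% horse serum. IC50 derived versus no-inhibitor wells.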
A general note: In ATP-based viability assays light output follows the ATP content of the culture.

Assay [2] relates to NCI-H358-AMGR drug-resistant cell line. Nature of the assay: NCI-H358-AMGR drug-resistant cell proliferation inhibitory activity test. It is filed as cell-based. The following applies: 72 h; NCI-H358-AMGR drug-resistant cells, 3 days incubation, CellTiter-Glo. In outline: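 Luminescent CellTiter-Glo read-out after 3-day, 37° C compound exposure (8 points, 5-fold series) of AMG510-resistant NCI-H358 cells plated at 4×10^3 per well.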

One may read the IC50 as the concentration that gives 50% inhibition.

SMILES strings stand for the structures. Where two headings read alike, the source gives them in different places.

Chain of PI3Kδ (O00329 whole entry): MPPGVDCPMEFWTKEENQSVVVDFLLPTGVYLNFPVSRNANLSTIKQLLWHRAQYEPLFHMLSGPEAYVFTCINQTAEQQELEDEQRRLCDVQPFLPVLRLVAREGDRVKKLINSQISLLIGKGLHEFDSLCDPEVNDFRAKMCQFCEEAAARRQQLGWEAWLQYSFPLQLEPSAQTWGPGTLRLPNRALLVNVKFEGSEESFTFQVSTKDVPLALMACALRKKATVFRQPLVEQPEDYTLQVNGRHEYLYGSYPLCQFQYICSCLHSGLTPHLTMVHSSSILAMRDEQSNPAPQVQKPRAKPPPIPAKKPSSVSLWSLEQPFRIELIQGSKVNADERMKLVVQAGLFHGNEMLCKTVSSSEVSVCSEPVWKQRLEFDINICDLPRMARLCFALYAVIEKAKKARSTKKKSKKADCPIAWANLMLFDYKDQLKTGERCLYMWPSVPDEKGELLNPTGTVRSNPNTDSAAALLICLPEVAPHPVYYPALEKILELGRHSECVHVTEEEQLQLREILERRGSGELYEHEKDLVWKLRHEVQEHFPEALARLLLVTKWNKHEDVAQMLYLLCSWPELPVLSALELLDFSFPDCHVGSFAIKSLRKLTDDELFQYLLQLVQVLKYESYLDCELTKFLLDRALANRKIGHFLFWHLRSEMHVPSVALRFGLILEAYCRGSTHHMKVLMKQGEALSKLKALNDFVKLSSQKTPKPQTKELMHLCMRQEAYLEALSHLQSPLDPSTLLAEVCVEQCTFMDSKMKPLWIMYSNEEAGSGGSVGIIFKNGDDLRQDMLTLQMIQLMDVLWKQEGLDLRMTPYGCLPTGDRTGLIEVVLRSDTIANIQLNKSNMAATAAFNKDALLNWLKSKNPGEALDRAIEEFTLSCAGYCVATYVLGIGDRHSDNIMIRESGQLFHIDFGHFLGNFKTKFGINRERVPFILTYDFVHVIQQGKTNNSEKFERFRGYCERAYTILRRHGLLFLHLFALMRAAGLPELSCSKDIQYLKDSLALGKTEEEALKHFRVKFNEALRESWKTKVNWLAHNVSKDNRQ
Chain of PI3Kδ (P27986 whole entry partner): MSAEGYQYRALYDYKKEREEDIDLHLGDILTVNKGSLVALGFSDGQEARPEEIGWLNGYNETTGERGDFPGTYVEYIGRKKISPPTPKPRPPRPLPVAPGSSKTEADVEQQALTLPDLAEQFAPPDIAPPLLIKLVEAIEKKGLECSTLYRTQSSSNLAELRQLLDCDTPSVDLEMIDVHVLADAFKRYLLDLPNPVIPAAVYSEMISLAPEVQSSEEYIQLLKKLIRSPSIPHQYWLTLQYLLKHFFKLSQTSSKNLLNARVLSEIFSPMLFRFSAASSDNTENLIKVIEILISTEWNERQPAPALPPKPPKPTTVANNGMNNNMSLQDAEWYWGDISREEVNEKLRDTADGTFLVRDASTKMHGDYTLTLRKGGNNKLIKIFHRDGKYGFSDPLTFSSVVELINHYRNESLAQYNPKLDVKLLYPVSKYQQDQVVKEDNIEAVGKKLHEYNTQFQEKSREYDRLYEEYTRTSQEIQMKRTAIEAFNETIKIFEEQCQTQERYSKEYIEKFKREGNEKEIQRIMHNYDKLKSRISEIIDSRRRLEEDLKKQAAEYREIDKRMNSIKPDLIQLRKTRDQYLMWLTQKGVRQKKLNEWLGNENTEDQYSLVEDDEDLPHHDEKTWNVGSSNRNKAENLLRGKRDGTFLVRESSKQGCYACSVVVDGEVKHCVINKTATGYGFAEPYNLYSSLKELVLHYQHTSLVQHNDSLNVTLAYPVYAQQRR
Chain of KRAS^G12C-SOS1 (P01116-2 other isoform, or with tags, fused parts or gaps G12C): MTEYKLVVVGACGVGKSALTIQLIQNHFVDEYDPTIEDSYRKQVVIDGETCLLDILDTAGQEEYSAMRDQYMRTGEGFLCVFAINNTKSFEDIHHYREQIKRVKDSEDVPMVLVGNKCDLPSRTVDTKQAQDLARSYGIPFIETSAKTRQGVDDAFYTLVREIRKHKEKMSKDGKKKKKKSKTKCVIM
Chain of PI3Kα (P42336 whole entry): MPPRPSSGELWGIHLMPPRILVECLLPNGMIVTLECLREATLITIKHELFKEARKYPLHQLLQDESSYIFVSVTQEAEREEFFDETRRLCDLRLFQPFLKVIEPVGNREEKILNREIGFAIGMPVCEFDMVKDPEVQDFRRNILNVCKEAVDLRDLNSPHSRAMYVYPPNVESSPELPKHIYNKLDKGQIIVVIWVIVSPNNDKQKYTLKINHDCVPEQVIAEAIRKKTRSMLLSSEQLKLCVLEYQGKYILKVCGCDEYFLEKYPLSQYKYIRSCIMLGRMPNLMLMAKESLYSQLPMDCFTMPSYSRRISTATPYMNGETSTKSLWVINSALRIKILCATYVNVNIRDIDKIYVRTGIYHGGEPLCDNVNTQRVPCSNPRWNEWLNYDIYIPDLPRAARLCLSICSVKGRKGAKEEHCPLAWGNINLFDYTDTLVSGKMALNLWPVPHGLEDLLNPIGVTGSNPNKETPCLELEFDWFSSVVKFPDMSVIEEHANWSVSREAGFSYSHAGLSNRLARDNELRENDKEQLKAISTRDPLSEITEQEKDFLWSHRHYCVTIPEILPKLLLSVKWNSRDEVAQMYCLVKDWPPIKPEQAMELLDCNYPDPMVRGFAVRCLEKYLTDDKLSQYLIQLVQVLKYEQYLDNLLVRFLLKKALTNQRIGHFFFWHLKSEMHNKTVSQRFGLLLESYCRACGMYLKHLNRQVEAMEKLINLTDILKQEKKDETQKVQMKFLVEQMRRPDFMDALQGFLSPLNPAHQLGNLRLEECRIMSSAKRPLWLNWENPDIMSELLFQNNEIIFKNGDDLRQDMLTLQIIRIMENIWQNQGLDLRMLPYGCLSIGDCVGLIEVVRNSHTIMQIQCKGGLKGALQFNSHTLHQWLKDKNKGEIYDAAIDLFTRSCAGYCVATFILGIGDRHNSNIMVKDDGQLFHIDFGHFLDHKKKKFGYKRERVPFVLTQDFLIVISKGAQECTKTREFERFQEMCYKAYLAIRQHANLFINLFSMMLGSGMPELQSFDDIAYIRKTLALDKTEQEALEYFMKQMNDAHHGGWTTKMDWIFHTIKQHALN
Chain of PI3Kα (P27986 whole entry partner): as the sequence (P27986 whole entry partner) above

As for `COc1ncc(-c2ccc3ncnc(N4CCN(C(=O)/C=C/C(C)=O)CC4)c3c2)cc1NS(=O)(=O)c1ccc(C(F)(F)F)cc1F` [Example 124, (E)-2-fluoro-N-(2-methoxy-5-(4-(4-(4-oxopent-2-enoyl)piperazin-1-yl)quinazolin-6-yl)pyridin-3-yl)-4-(trifluoromethyl)benzenesulfonamide], the IC50 on PI3Kα (Table 2) is 0.0044 µM; at PI3Kδ (Table 2) it was 0.0614 µM; at KRAS^G12C-SOS1 it was 0.73 µM; in assay [1] it was 0.0584 µM; in assay [2] it was 0.0855 µM.

Turning to `COc1ncc(-c2ccc3ncnc(N4CCN(C(=O)/C=C/C(C)=O)CC4)c3n2)cc1NS(=O)(=O)c1cccc(F)c1F` [Example 218, (E)-2,3-difluoro-N-(2-methoxy-5-(4-(4-(4-oxopent-2-enoyl)piperazin-1-yl)pyrido[3,2-d]pyrimidin-6-yl)pyridin-3-yl) benzene-sulfonamide], the IC50 at PI3Kα (Table 4) is 0.0026 µM; at PI3Kδ (Table 4), 0.0108 µM; on KRAS^G12C-SOS1, 0.292 µM; in assay [1] it was 0.0215 µM; in assay [2], 0.0135 µM.

Turning to `COc1ncc(-c2ccc3ncnc(N4CCN(C(=O)/C=C/C(C)=O)CC4)c3c2)cc1NS(=O)(=O)c1ccc(F)cc1` [Example 92, (E)-4-fluoro-N-(2-methoxy-5-(4-(4-(4-oxopent-2-enoyl)piperazin-1-yl)quinazolin-6-yl)pyridin-3-yl)benzenesulfonamide], the 50% inhibitory concentration (IC50) at PI3Kα (Table 2) was 0.0064 µM; on PI3Kδ (Table 2), 0.0511 µM; at KRAS^G12C-SOS1, 0.369 µM; in assay [1], 0.031 µM; in assay [2], 0.111 µM.

Consider `COc1ncc(-c2ccc3ncnc(N4CCC5(CC4)CN(C(=O)/C=C/C(C)=O)C5)c3c2)cc1NS(=O)(=O)c1ccc(F)cc1Cl` [Example 171, (E)-2-chloro-4-fluoro-N-(2-methoxy-5-(4-(2-(4-oxopent-2-enoyl)-2,7-diazaspiro[3.5]nonan-7-yl)quinazolin-6-yl)pyridin-3-yl)benzene-sulfonamide], for which the half-inhibitory concentration (IC50) at PI3Kα (Table 4) turned out to be 0.0129 µM; on PI3Kδ (Table 4), 0.0401 µM; at KRAS^G12C-SOS1, 0.441 µM; in assay [1], 0.0126 µM; in assay [2], 0.0415 µM.

Regarding `COc1ncc(-c2ccc3ncnc(N4CCN(C(=O)/C=C/C(C)=O)C[C@@H]4C)c3c2)cc1NS(=O)(=O)c1ccc(F)cc1` [Example 153, (S,E)-4-fluoro-N-(2-methoxy-5-(4-(2-methyl-4-(4-oxopent-2-enoyl)piperazin-1-yl)quinazolin-6-yl)pyridin-3-yl)benzenesulfonamide], the concentration for half-maximal inhibition (IC50) at PI3Kα (Table 4) is 0.00073 µM; at PI3Kδ (Table 4), 0.0127 µM; on KRAS^G12C-SOS1 it was 0.21 µM; in assay [1] it was 0.0567 µM; in assay [2], 0.1 µM.

With `COc1ncc(-c2ccc3ncnc(N4CCN(C(=O)/C=C/C(C)=O)[C@@H](CC#N)C4)c3c2)cc1NS(=O)(=O)c1c(F)cccc1F` [Example 116, (S,E)-N-(5-(4-(3-(cyanomethyl)-4-(4-oxopent-2-enoyl)piperazin-1-yl)quinazolin-6-yl)-2-methoxypyridin-3-yl)-2,6-difluorobenzenesulfonamide], the IC50 worked out at 0.0018 µM at PI3Kα (Table 2); 0.027 µM on PI3Kδ (Table 2); 1.57 µM at KRAS^G12C-SOS1; 0.107 µM in assay [1]; 0.232 µM in assay [2].

Consider `COc1ncc(-c2ccc3ncnc(N4CCN(C(=O)/C=C/C(C)=O)CC4)c3n2)cc1NS(=O)(=O)c1c(F)cc(F)cc1F` [Example 219, (E)-2,4-trifluoro-N-(2-methoxy-5-(4-(4-(4-oxopent-2-enoyl)piperazin-1-yl)pyrido[3,2-d]pyrimidin-6-yl)pyridin-3-yl) benzene-sulfonamide], for which the IC50 at PI3Kα (Table 4) is 0.00091 µM; on PI3Kδ (Table 4), 0.0116 µM; on KRAS^G12C-SOS1 it was 0.151 µM; in assay [1], 0.0058 µM; in assay [2], 0.0159 µM.

As to `COc1ncc(-c2ccc3ncnc(N4CCN(C(=O)/C=C/C(C)=O)CC4)c3c2)cc1NS(=O)(=O)c1ccccc1C` [Example 93, (E)-N-(2-methoxy-5-(4-(4-(4-oxopent-2-enoyl)piperazin-1-yl)quinazolin-6-yl)pyridin-3-yl)-2-methylbenzenesulfonamide], the IC50 at PI3Kα (Table 2) is 0.006 µM; at PI3Kδ (Table 2), 0.0729 µM; on KRAS^G12C-SOS1, 0.344 µM; in assay [1], 0.0394 µM; in assay [2], 0.0693 µM.

Consider `COc1ncc(-c2ccc3ncnc(N4CCN(C(=O)/C=C/C(C)=O)CC4)c3c2)cc1NS(=O)(=O)c1c(F)cncc1F` [Example 102, (E)-3,5-difluoro-N-(2-methoxy-5-(4-(4-(4-oxopent-2-enoyl)piperazin-1-yl)quinazolin-6-yl)pyridin-3-yl)pyridine-4-sulfonamide], for which the IC50 on PI3Kα (Table 2) is 0.0012 µM; at PI3Kδ (Table 2) it was 0.0328 µM; on KRAS^G12C-SOS1, 0.141 µM; in assay [1], 0.143 µM; in assay [2], 0.516 µM.

For `COc1ncc(-c2ccc3ncnc(N4CCN(C(=O)/C=C/C(C)=O)C[C@@H]4C)c3c2)cc1NS(=O)(=O)c1ccc(F)cc1Cl` [Example 174, (S,E)-2-chloro-4-fluoro-N-(2-methoxy-5-(4-(2-methyl-4-(4-oxopent-2-enoyl)piperazin-1-yl)quinazolin-6-yl)pyridin-3-yl)benzene-sulfonamide], the IC50 on PI3Kα (Table 4) is 0.0035 µM; at PI3Kδ (Table 4) it was 0.0171 µM; on KRAS^G12C-SOS1 it was 0.423 µM; in assay [1], 0.0156 µM; in assay [2], 0.0286 µM.

Take `COc1ncc(-c2ccc3ncnc(N4CCN(C(=O)/C=C/C(C)=O)C[C@@H]4C)c3c2)cc1NS(=O)(=O)c1sc(C)nc1C` [Example 173, (S,E)-N-(2-methoxy-5-(4-(2-methyl-4-(4-oxopent-2-enoyl)piperazin-1-yl)quinazolin-6-yl)pyridin-3-yl)-2,4-dimethyl-thiazole-5-sulfonamide]: the IC50 on PI3Kα (Table 4) was 0.0022 µM; at PI3Kδ (Table 4) it was 0.0165 µM; at KRAS^G12C-SOS1 it was 0.199 µM; in assay [1] it was 0.0092 µM; in assay [2], 0.0547 µM.

As for `COc1ncc(-c2ccc3ncnc(C4CCN(C(=O)/C=C/C(C)=O)CC4)c3n2)cc1NS(=O)(=O)c1c(F)cc(F)cc1F` [Example 231, (E)-2,4,6-trifluoro-N-(2-methoxy-5-(4-(1-(4-oxopent-2-enoyl)piperidin-4-yl)pyrido[3,2-d]pyrimidin-6-yl)pyridin-3-yl)benzenesulfonamide], the IC50 on PI3Kα (Table 4) amounted to 0.0036 µM; on PI3Kδ (Table 4), 0.0161 µM; at KRAS^G12C-SOS1, 0.463 µM; in assay [1] it was 0.0132 µM; in assay [2] it was 0.0216 µM.

As for `COc1ncc(-c2ccc3ncnc(N4CCN(C(=O)/C=C/C(C)=O)CC4)c3n2)cc1NS(=O)(=O)c1c(F)cccc1F` [Example 131, (E)-2,6-difluoro-N-(2-methoxy-5-(4-(4-(4-oxopent-2-enoyl)piperazin-1-yl)pyrido[3,2-d]pyrimidin-6-yl)pyridin-3-yl)benzenesulfonamide], the half-inhibitory concentration (IC50) was 0.0016 µM on PI3Kα (Table 3); 0.0137 µM on PI3Kδ (Table 3); 0.2 µM at KRAS^G12C-SOS1; 0.025 µM in assay [1]; 0.0191 µM in assay [2].

With `COc1ncc(-c2ccc3ncnc(N4CC5CCC(C4)N5C(=O)/C=C/C(C)=O)c3c2)cc1NS(=O)(=O)c1sc(C)nc1C` [Example 176, N-(2-methoxy-5-(4-(8-((E)-4-oxopent-2-enoyl)-3,8-diazabicyclo [3.2.1]octan-3-yl)quinazolin-6-yl)pyridin-3-yl)-2,4-dimethyl-thiazole-5-sulfonamide], the IC50 at PI3Kα (Table 4) amounted to 0.0026 µM; at PI3Kδ (Table 4), 0.0139 µM; at KRAS^G12C-SOS1, 0.113 µM; in assay [1] it was 0.0293 µM; in assay [2], 0.0761 µM.

On to `COc1ncc(-c2ccc3ncnc(N4CCN(C(=O)/C=C/C(C)=O)CC4)c3c2)cc1NS(=O)(=O)c1c(F)cc(F)cc1F` [Example 99, (E)-2,4,6-trifluoro-N-(2-methoxy-5-(4-(4-(4-oxopent-2-enoyl)piperazin-1-yl)quinazolin-6-yl)pyridin-3-yl)benzenesulfonamide], for which the IC50 amounted to 0.006 µM at PI3Kα (Table 2); 0.0079 µM at PI3Kδ (Table 2); 0.188 µM on KRAS^G12C-SOS1; 0.0167 µM in assay [1]; 0.0652 µM in assay [2].

For `COc1ncc(-c2ccc3ncnc(N4CCN(C(=O)/C=C/C(C)=O)CC4)c3n2)cc1NS(=O)(=O)c1c(Cl)cncc1Cl` [Example 224, (E)-3,5-dichloro-N-(2-methoxy-5-(4-(4-(4-oxopent-2-enoyl)piperazin-1-yl)pyrido[3,2-d]pyrimidin-6-yl)pyridin-3-yl) pyridine-4-sulfonamide], the IC50 turned out to be 0.0011 µM at PI3Kα (Table 4); 0.0238 µM at PI3Kδ (Table 4); 0.188 µM on KRAS^G12C-SOS1; 0.0793 µM in assay [1]; 0.22 µM in assay [2].

The record behind these values is patent US20250145589A1, “PYRIDINE DERIVATIVE AND USE THEREOF” (SICHUAN HUIYU PHARMACEUTICAL CO., LTD., priority 2021, published 2025).
